Earlier results, collected in PubChem BioAssay AID1259409 (Chemical Carcinogenesis Research Information System (CCRIS), 2018).

Test system: rodent chemically induced tumor inhibition, incidence and multiplicity
Test: CCRIS tumor inhibitor studies
Details: Carcinogen: N-METHYL-N-NITROSOUREA, 684-93-5, Route [Inhibitor]: ORAL, Species: RAT, Promoter: NONE USED

For CC1=C(/C=C/C(C)=C/C=C/C(C)=C/C(=O)Nc2ccc(O)cc2)C(C)(C)CCC1, the “tumour outcome (control, treated, inhibition, significance)” value (Dose [Inhibitor]: 0, 782 MG/KG OF GRAIN-BASED WAYNE DIET FOR DURATION OF STUDY BEGINNING 7 D POST CARCINOGEN DOSE (STUDY DURATION: 25 WK), Strain/Sex: F344/FEMALE, Target Tissue: Type of Lesion: MAMMARY GLAND: TUMOR, Dose [Carcinogen]: 45 MG/KG BW ONCE AT 50 D OF AGE) is given as 9/25 (36%), 6/25 (24%), 33%, not significant, the “tumour outcome (control, treated, inhibition, significance)” value (Dose [Inhibitor]: 0, 782 MG/KG OF GRAIN-BASED WAYNE DIET FOR DURATION OF STUDY BEGINNING 7 D PRIOR TO CARCINOGEN DOSE (STUDY DURATION: 26, Strain/Sex: F344/FEMALE, Target Tissue: Type of Lesion: MAMMARY GLAND: TUMOR, Dose [Carcinogen]: 45 MG/KG BW ONCE AT 50 D OF AGE) is given as 9/25 (36%), 5/25 (20%), 44%, not significant and the “tumour outcome (control, treated, inhibition, significance)” value (Dose [Inhibitor]: 0, 786 MG/KG IN DIET FOR 26 WK BEGINNING 4 WK POST CARCINOGEN DOSE (STUDY DURATION: 31 WK), Strain/Sex: SPRAGUE-DAWLEY/FEMALE, Target Tissue: Type of Lesion: MAMMARY GLAND: ADENOCARCINOMA, Dose [Carcinogen]: 50 MG/KG ONCE) is given as 84%, 74%, 12%, not significant. The “tumour outcome (control, treated, inhibition, significance)” value (Dose [Inhibitor]: 0, 786 MG/KG IN DIET FOR 31 WK BEGINNING 1 WK PRIOR TO CARCINOGEN DOSE (STUDY DURATION: 31 WK), Strain/Sex: SPRAGUE-DAWLEY/FEMALE, Target Tissue: Type of Lesion: MAMMARY GLAND: ADENOCARCINOMA, Dose [Carcinogen]: 50 MG/KG ONCE) was 84%, 71%, 15%, not significant, the “tumour outcome (control, treated, inhibition, significance)” value (Dose [Inhibitor]: 0, 1173 MG/KG DIET BEGINNING AFTER THE SURGICAL REMOVAL OF THE FIRST PALPABLE TUMOR (STUDY DURATION: LIFETIME), Strain/Sex: SPRAGUE-DAWLEY/FEMALE, Target Tissue: Type of Lesion: MAMMARY GLAND: TUMOR, Dose [Carcinogen]: 35 MG/KG ONCE AT 50 DAYS OF AGE) was 93%, 88%, 5%, not calculated and the “tumour outcome (control, treated, inhibition, significance)” value (Dose [Inhibitor]: 1 MMOL/KG DIET DAILY STARTING 3 D AFTER LAST CARCINOGEN DOSE THROUGH END OF STUDY (STUDY DURATION: 129 D), Strain/Sex: SPRAGUE-DAWLEY/FEMALE, Target Tissue: Type of Lesion: MAMMARY GLAND: TUMOR, Dose [Carcinogen]: 50 MG/KG BW AT BOTH 50 AND 57 D OF AGE) was 17/17 (100%), 12/15 (80%), 20%, not significant. For the same compound, the “tumour outcome (control, treated, inhibition, significance)” value (Dose [Inhibitor]: 1 MMOL/KG DIET DAILY STARTING 3 D AFTER LAST CARCINOGEN DOSE THROUGH END OF STUDY (STUDY DURATION: 182 D), Strain/Sex: SPRAGUE-DAWLEY/FEMALE, Target Tissue: Type of Lesion: MAMMARY GLAND: TUMOR, Dose [Carcinogen]: 15 MG/KG BW AT BOTH 50 AND 57 D OF AGE) was 12/40 (30%), 12/40 (30%), 0%, not significant, the “tumour outcome (control, treated, inhibition, significance)” value (Dose [Inhibitor]: 2 MMOL/KG DIET DAILY FROM 2 D PRIOR THROUGH 12 WK AFTER CARCINOGEN DOSE FOLLOWED BY 16 WK OBSERVATION PERIOD (STUDY DURA, Strain/Sex: SPRAGUE-DAWLEY/FEMALE, Target Tissue: Type of Lesion: MAMMARY GLAND: TUMOR, Dose [Carcinogen]: 25 MG/KG BW ONCE) was 18/21 (86%), 15/30 (50%), 42%, p 0.027 and the “tumour outcome (control, treated, inhibition, significance)” value (Dose [Inhibitor]: 2 MMOL/KG DIET DAILY FROM 2 D THROUGH 17 WK AFTER CARCINOGEN DOSE FOLLOWED BY 11 WK OBSERVATION PERIOD (STUDY DURATION:, Strain/Sex: SPRAGUE-DAWLEY/FEMALE, Target Tissue: Type of Lesion: MAMMARY GLAND: TUMOR, Dose [Carcinogen]: 25 MG/KG BW ONCE) was 18/21 (86%), 18/30 (60%), 30%, not significant. For the same compound, the “tumour outcome (control, treated, inhibition, significance)” value (Dose [Inhibitor]: 2 MMOL/KG DIET DAILY STARTING 3 D AFTER LAST CARCINOGEN DOSE THROUGH END OF STUDY (STUDY DURATION: 129 D), Strain/Sex: SPRAGUE-DAWLEY/FEMALE, Target Tissue: Type of Lesion: MAMMARY GLAND: TUMOR, Dose [Carcinogen]: 50 MG/KG BW AT BOTH 50 AND 57 D OF AGE) was 17/17 (100%), 11/17 (65%), 35%, p<0.01, the “tumour outcome (control, treated, inhibition, significance)” value (Dose [Inhibitor]: 2 MMOL/KG DIET DAILY STARTING 3 D AFTER LAST CARCINOGEN DOSE THROUGH END OF STUDY (STUDY DURATION: 182 D), Strain/Sex: SPRAGUE-DAWLEY/FEMALE, Target Tissue: Type of Lesion: MAMMARY GLAND: TUMOR, Dose [Carcinogen]: 15 MG/KG BW AT BOTH 50 AND 57 D OF AGE) was 12/40 (30%), 6/40 (15%), 50%, not significant and the “tumour outcome (control, treated, inhibition, significance)” value (Dose [Inhibitor]: 2 MMOL/KG DIET DAILY STARTING 12 D AFTER CARCINOGEN TREATMENT THROUGH ABOUT 8 MO AFTER CARCINOGEN DOSE (STUDY DURATION:, Strain/Sex: F344/MALE, Target Tissue: Type of Lesion: COLON: ADENOCARCINOMA, Dose [Carcinogen]: 2.5 MG 1/WK FOR 2 WK) was 5/39 (13%), 3/30 (10%), 23%, not significant.
